Results on 11 compounds are retold here after patent US7201928B1, “Extracts of orange peel for prevention and treatment of cancer” (Rutgers, The State University of New Jersey, priority 1999, dated 2007).

Where two headings read alike, the source gives them in different places.

One data set has as its system W138 (normal) cells. As to the kind of experiment: cell proliferation assay and morphology, normal cells. The format is cell-based, human. As to conditions: for effect on normal cell growth: crystal violet, 0, 1, 5, 10, 20 or 50 μg/ml; for neutral β-galactosidase activity (staining), senescence marker: W138 cells. How it is done: (§1) In addition to testing for the activity of the complete orange peel extract, two of the identified extract components, tangeretin and nobeletin, were tested for their combined activity in a cell proliferation assay. The growth of W138 (normal) and W138VA (transformed) cells was tested in the presence of a mixture of tangeretin and nobeletin. The dye crystal violet was used for measuring growth of the cells. Cells were treated with either tangeretin alone (0, 1, 5, 10, 20 or 50 μg/ml), nobeletin alone (0, 1, 5, 10, 20 or 50 μg/ml) or a mixture of the two compounds at a total concentration of the two flavenoids of 0, 1, 5, 10, 20 or 50 μg/ml. […] The range of doses of the extract tested was 0, 1, 5, 10, 20 and 50 μg/ml.
(§2) W138 human diploid fibroblasts and cancerous SV40-transformed W138 cells (W138VA) were used in a cell proliferation assay. Growth rate and viability of these cells was determined following addition of resveratrol or one of its analogs. Doses tested ranged from 50 ng to 300 μg per ml or 1 μM to 100 μM concentrations in culture media. […] MR-1 was not active as an inhibitor of cell growth even at doses as high as 100 μM.
Treatment of W138 and W138VA cells with resveratrol and its analogs also led to morphological changes in the cells. Treatment of W138 cells with resveratrol and its analogs R-1 and R-3 led to elongation of normal W138 cells. Methoxy analogs such as MR-0 and MR-3 caused the flattening of W138 cells. This flattening was accompanied by an increase in neutral β-galactosidase activity as indicated by an increase in staining.

The subject of a further data set is W138 and W138VA cells. As to the kind of experiment: cell proliferation assay, cell line not specified for the result. The format is cell-based, human. How it is done:
as §1, §2

For data set [1], the system named is W138VA (transformed) cells. The data set can be described thus: cell proliferation assay, transformed cells. The format is cell-based, human. As to conditions: for inhibition of cell growth in transformed cells: crystal violet, 0, 1, 5, 10, 20 or 50 μg/ml. How it is done: as §1, §2
Another data set has as its system 184-B5/HER cells. As to the kind of experiment: preclinical cell culture model for human ductal breast carcinoma in situ. The data set is classed as cell-based. The conditions noted are these: for cell cycle analysis: relative to solvent-treated control cultures. How it is done:
Experiments were also performed in a preclinical cell culture model for human ductal breast carcinoma in situ (DCIS). The human breast-derived preneoplastic cell line 184-B5/HER expressed HER-2/neu, p53 and EGFR but not ER, therefore resembling the clinical DCIS. Initial dose-response experiments compared the growth inhibitory effect of orange peel extract on the parental 184-B5 cells and the HER-2/neu oncogene-expressing 184-B5/HER cells. […] Orange peel extract at the maximum cytostatic dose of 100 ppm accumulated the cells in the G0/G1 phase and inhibited the S+G2/M phase of the cell cycle, leading to down-regulation of cell cycle progression. […] Treatment of 184-B5/HER cells with 100 ppm orange peel extract induced a 7.6-fold increase in sub G0/G1 (apoptotic) population. Consistent with the induction of apoptosis, immunoreactivity to anti-apoptotic Bcl-2 was decreased by 33%.
Resveratrol and its analogs were also tested in preneoplastic 184-B5/HER human mammary epithelial cells.

In a further data set the test system is AOM-induced colon tumors. The data set can be described thus: AOM-induced colon tumorigenesis. As to conditions: 0.2% in AIN 76A diet + AOM.
Data set [2] deals with AOM-induced aberrant crypt foci (ACF). The data set can be described thus: AOM-induced formation of aberrant crypt foci (colon cancer model). The data set is classed as in vivo, Female CF-1 mice. The conditions noted are these: 0.2% in diet. How it is done:
The orange peel extract was then tested in an in vivo model for colon cancer. Female CF-1 mice were injected with azoxymethane (AOM) once a week for four weeks at increasing doses (5, 10, 10 and 10 mg/kg). Orange peel extract was administered in the diet (0.2%) starting two weeks before the first AOM injection, during and continuing until the end of the experiment at 24 weeks. At week 24, the mice were given one last dose of AOM (10 mg/kg). The mice were then sacrificed and their colons removed (from anus to caecum). The colons were opened longitudinally, rinsed with normal saline, and stapled to a plastic sheet. The colon samples were placed in a 10% neutral buffered formalin solution for 24 hours. The entire colon was stained with 0.2% methylene blue dissolved in phosphate buffered saline for 20 minutes. The whole mount of colon samples were then examined using light microscopy for the presence of aberrant crypt (AC) or aberrant crypt foci (ACF). Both ACF and AC are biomarkers for colon cancer. […] Mice fed nordihydroxyguaiaretic acid (NDGA) in the diet (0.2%) were used as controls.

Data set [3] has as its system oncogene-expressing, preneoplastic breast epithelial cells. The data set can be described thus: orthotransplant model, palpable tumor formation at transplant sites. The conditions noted are these: AIN-76A diet supplemented with 400 ppm.
Description: Mice were transplanted with oncogene-expressing, preneoplastic breast epithelial cells. Mice were then divided into groups with the control group fed AIN-76A diet alone. Another group of mice was fed AIN-76A diet supplemented with MR-3 (400 ppm).
Setting [4] is: read-out: concentration that inhibited growth by 50% (IC50), 184-B5/HER human mammary epithelial cells.

Protocol for AOM-induced colon tumors: In a similar experiment in the mouse colon cancer model, CF-1 mice were injected with AOM (5, 10, 10 and 10 mg/kg) starting at 6 weeks of age, once each week and then once at 37 weeks after the first dose of AOM. Throughout the treatment period, mice received either an AIN 76A diet or test compound in AIN 76A diet at 2 weeks before the first dose of AOM and continuing until the end of the experiment. The test compounds were NDGA (0.2%) and orange peel extract (0.2%). Colon samples were again obtained at sacrifice, stored in 10% formalin phosphate buffer, and then colon tumor number was determined.

On to `Oc1ccc(C=Cc2cc(O)cc(O)c2)cc1` [resveratrol, reference compound], for which, in the data set on W138 (normal) cells, the “morphological changes of W138 cells” value is reported as “elongation”. Besides, in the data set on W138 and W138VA cells (tested 1 μM to 100 μM), the “concentration inhibiting cell growth” value was “less than 10 μM”.

With `COc1cc(C=Cc2cc(OC)cc(OC)c2)cc(OC)c1` [MR-4, 3,3′,5′5′-tetramethoxystilbene], the “growth of W138 cells” value with W138 (normal) cells (100 μM) was “inhibited growth”.

For the compound `COc1ccc(-c2cc(=O)c3c(OC)c(OC)c(OC)c(OC)c3o2)cc1` [tangeretin, 5,6,7,8,4′-pentamethoxyflavone], in the data set on W138 (normal) cells, the “effect on normal cell growth” value is on record as “no effect”. Further, in data set [1], the “inhibition of cell growth in transformed cells” value is “only marginal effects”.

Take `COc1cc(C=Cc2ccc(OC)c(OC)c2)cc(OC)c1` [MR-2, 3,3′,4,5′-tetramethoxystilbene]: the IC50 in the data set on 184-B5/HER cells (setting [4]) was determined as 120 µM. In the data set with 184-B5/HER cells, the cell cycle analysis entry is listed as “progressive arrest of cells in the G2/M phase”.

Consider `CC(Cc1ccc(O)c(O)c1)C(C)Cc1ccc(O)c(O)c1` (stereo not shown) [NDGA, nordihydroxyguaiaretic acid], for which, in the data set on AOM-induced colon tumors, the “Colon Tumors Per Mouse” value is 0.27 ± 0.14 and the “Percent Incidence” value came out at 27%. Further, in data set [2] (24 weeks), the AC/ACF is 3.5, the AC/colon was found to be 9.4 ± 2.2, the ACF/colon is 2.7 ± 0.9 and the “ACF: 1 AC/colon” value amounted to 6.8 ± 1.5. In addition, in data set [2] (24 weeks), the “ACF: 2 AC/colon” value is 1.0 ± 0.3, the “ACF: 3 AC/colon” value is given as 0.2 ± 0.2, the “ACF: 4 AC/colon” value came out at 0 and the “ACF: 5 AC/colon” value worked out at 0. In data set [2] (24 weeks), the “ACF: 6 AC/colon” value was found to be 0 and the “ACF: 7 AC/colon” value worked out at 0. In addition, in data set [2] (vs positive control), the “inhibition of the number of ACF per colon” value stood at 48% and the “inhibition of the ratio of AC/ACF” value amounted to 51%.

Regarding `COc1ccc(-c2cc(=O)c3c(OC)c(OC)c(OC)c(OC)c3o2)cc1OC` [nobeletin, 5,6,7,8,3′,4′-hexamethoxyflavone], the “effect on normal cell growth” value in the data set on W138 (normal) cells is “no effect”. For the same compound, the “inhibition of cell growth in transformed cells” value in data set [1] is given as “only marginal effects”.

In the case of `COc1ccc(C=Cc2cc(OC)c(OC)c(OC)c2)cc1` [MR-3, 3,4,4′,5-tetramethoxystilbene], in the data set on W138 (normal) cells, the “morphological changes of W138 cells” value is “flattening” and the “neutral β-galactosidase activity (staining), senescence marker” value is “increase”. Also, the “growth of W138 cells” value in the data set on W138 (normal) cells (1 μM) was “no effect”. Moreover, in the data set with 184-B5/HER cells (Homo sapiens, 184B5, read-out: concentration that inhibited growth by 50% (IC50)), the IC50 turned out to be 1 µM. Further, in the data set with 184-B5/HER cells, the cell cycle analysis result was “progressive arrest of cells in the G2/M phase”. The “toxicity (weight gains comparable)” value in data set [3] (12 weeks) is on record as “little toxicity”. In data set [3] (12 weeks of continuous feeding), this compound gave a tumor incidence of 20%. The “proliferation of W138VA cells” value in data set [1] (1 μM) was “completely blocked proliferation”.

On to `COc1ccc(C=Cc2cc(OC)cc(OC)c2)cc1` [MR-0, 3, 4′,5-trimethoxystilbene], for which, in the data set on W138 (normal) cells, the “morphological changes of W138 cells” value was “flattening” and the “neutral β-galactosidase activity (staining), senescence marker” value was “increase”. Besides, in the data set on 184-B5/HER cells (setting [4]), the IC50 came out at 10.5 µM. Also, the cell cycle analysis result in the data set on 184-B5/HER cells is “progressive arrest of cells in the G2/M phase”. Also, the “inhibition of cell growth” value in the data set with W138 and W138VA cells (tested 1 μM to 100 μM) was “inhibited cell growth”.

Turning to `Oc1ccc(C=Cc2cc(O)c(O)c(O)c2)cc1` [R-3, 3,4,4′,5-tetrahydroxystilbene], in the data set with W138 (normal) cells, the “morphological changes of W138 cells” value is on record as “elongation”. Further, the “inhibition of cell growth” value with W138 and W138VA cells (tested 1 μM to 100 μM) was “inhibited cell growth”.

As for `COc1cc(C=Cc2ccccc2)cc(OC)c1` [MR-1, 3,5-dimethoxystilbene], the “activity as inhibitor of cell growth” value in the data set on W138 and W138VA cells (doses as high as 100 μM) is given as “not active”.

Take `Oc1cc(O)cc(C=Cc2ccccc2)c1` [R-1, 3,5-dihydroxystilbene]: the “morphological changes of W138 cells” value in the data set with W138 (normal) cells is reported as “elongation”.
